Broadly, the CC50 is the concentration that lowers cell viability or growth by half. By IC50 is commonly meant the point on the concentration scale where inhibition reaches its midpoint. One may read the Ki as a measure of affinity in units of concentration, obtained from inhibition or displacement. A word on the EC50: it is the midpoint of the concentration-response curve.

Results on 16 molecules are retold here after ChEMBL document CHEMBL1152586, “Neuraminidase inhibitory activities of flavonols isolated from Rhodiola rosea roots and their in vitro anti-influenza viral activities” (Bioorg Med Chem, 2009).

Data set [1] can be described thus: Cytotoxicity against MDCK cells after 48 hrs by MTT assay. In kind it is cell-based, Canis lupus familiaris. The following applies: dog. (Tetrazolium assays rely on reduction of a dye to a coloured formazan, in cell work by metabolically active cells.)
The next data set has as its target Neuraminidase (Influenza A virus, UniProt B4URF0). The data set can be described thus: Noncompetitive inhibition of recombinant influenza A virus rvH1N1 A/Bervig_Mission/1/18 neuraminidase.
Data set [2] is described as follows: Selectivity index, ratio of CC50 for MDCK cells to EC50 for influenza virus H1N1 A/PR/8/34. The format is toxicity, cell-based. The following applies: dog, read-out: Ratio CC50/EC50.
Data set [3] has as its system Influenza A virus. Kind of data set: Antiviral activity against influenza A virus H1N1 A/PR/8/34 infected in MDCK cells assessed as reduction in virus-induced cytopathic effect. The format is functional, organism-based. The conditions noted are these: A/Puerto Rico/8/1934(H1N1). For orientation: Protection from cytopathic effect is a common read-out in antiviral testing.

In data set [4] the test system is Influenza A virus. Kind of data set: Antiviral activity against influenza A virus H9N2 A/Chicken/Korea/MS96/96 infected in MDCK cells assessed as reduction in virus-induced cytopathic effect. The format is functional, organism-based. The following applies: A/Chicken/Korea/MS96/96, MDCK.
The nature of data set [5]: Selectivity index, ratio of CC50 for MDCK cells to EC50 for influenza virus H9N2 A/Chicken/Korea/MS96/96. In kind it is toxicity, cell-based. The conditions noted are these: dog, read-out: Ratio CC50/EC50.
The target of the next data set is T1, Sialidase (Clostridium perfringens, UniProt P10481).
T1 sequence (P10481 whole entry): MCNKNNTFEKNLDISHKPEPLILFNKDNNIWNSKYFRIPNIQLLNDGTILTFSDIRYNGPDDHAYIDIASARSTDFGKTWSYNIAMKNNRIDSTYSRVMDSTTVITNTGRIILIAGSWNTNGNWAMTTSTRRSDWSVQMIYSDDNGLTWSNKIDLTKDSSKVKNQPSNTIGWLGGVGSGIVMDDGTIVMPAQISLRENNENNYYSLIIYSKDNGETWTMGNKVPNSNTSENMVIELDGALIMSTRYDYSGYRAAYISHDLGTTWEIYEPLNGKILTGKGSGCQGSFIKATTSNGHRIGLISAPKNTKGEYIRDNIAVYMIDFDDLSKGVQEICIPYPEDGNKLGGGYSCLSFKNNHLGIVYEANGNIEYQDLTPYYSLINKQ
Kind of data set: Inhibition of Clostridium perfringens neuraminidase.

Data set [6] concerns Influenza A virus. The data set can be described thus: Antiviral activity against influenza A virus H1N1 A/PR/8/34 infected in MDCK cells assessed as reduction in fluorescence positive cells at 50 uM immunofluorescence assay. In kind it is functional, organism-based. The conditions noted are these: A/Puerto Rico/8/1934(H1N1).

The source made the active and inactive calls. The rule behind the calls is not given here. A value given as a limit tells only on which side of the number the result lay.

Regarding `O=c1c(O)c(-c2ccc(O)c(O)c2)oc2c(O)c(O)cc(O)c12` [GOSSYPETIN], the CC50 at 48 h in data set [1] came to 283 µM. For the same molecule, the IC50 worked out at 2.6 µM on Neuraminidase and 0.8 µM against Sialidase. Moreover, the inhibition constant Ki at Neuraminidase was 7.7 µM. Besides, the values for the selectivity ratio in data set [2] and in data set [5] were 6.58 and 7.8, respectively. In addition, the figures for the EC50 in the data set on Influenza A virus [3] and in the data set with Influenza A virus [4] were 43 µM and 36.3 µM, respectively.
Regarding `O=c1cc(-c2ccc(O)c(O)c2)oc2cc(O)cc(O)c12` [LUTEOLIN], the CC50 at 48 h in data set [1] was 165 µM. Besides, the IC50 at Neuraminidase stood at 11 µM; at Sialidase it was 4.3 µM. In addition, the Ki on Neuraminidase was found to be 19.6 µM. The selectivity ratio is 1.96 in data set [2] and 1.6 in data set [5]. Besides, the EC50 with Influenza A virus [3] came out at 84 µM; in the data set on Influenza A virus [4], 103 µM.
In data set [1], `O=c1c(O)c(-c2ccc(O)cc2)oc2cc(O)cc(O)c12` [KAEMPFEROL] had a CC50 at 48 h of more than 300 µM. The concentration for half-maximal inhibition (IC50) at Neuraminidase was 11.2 µM; at Sialidase, 8 µM. At Neuraminidase, the Ki turned out to be 21.1 µM. Also, the selectivity ratio in data set [2] was more than 9.93; in data set [5], more than 16.2. The outcome with Influenza A virus [6] was Active. The 50% effective concentration (EC50) is 30.2 µM in the data set with Influenza A virus [3] and 18.5 µM in the data set on Influenza A virus [4].
In the case of `C[C@@H]1O[C@@H](Oc2cc(O)c3c(=O)c(O)c(-c4ccc(O)cc4)oc3c2O)[C@H](O)[C@H](O[C@H]2O[C@@H](CO)[C@H](O)[C@@H](O)[C@@H]2O)[C@H]1O` [RHODIOSIN], the values for the EC50 in the data set on Influenza A virus [3] and in the data set on Influenza A virus [4] were 81.9 µM and 35.1 µM, respectively.
Molecule `C[C@@H]1OC(Oc2cc(O)c3c(=O)c(O)c(-c4ccc(O)cc4)oc3c2O)[C@H](O)[C@H](O)[C@H]1O` (stereo partly specified) [RHODIONIN] came in with a CC50 at 48 h in data set [1] of more than 300 µM. The IC50 at Neuraminidase was 32.2 µM; against Sialidase it was 40.6 µM. Besides, the Ki at Neuraminidase stood at 59.4 µM. For the same molecule, the values for the selectivity ratio in data set [2] and in data set [5] were more than 4.01 and more than 6.05, respectively. Also, the values for the EC50 in the data set with Influenza A virus [3] and in the data set with Influenza A virus [4] were 74.8 µM and 49.6 µM, respectively.
In data set [1], `O=c1cc(-c2ccc(O)cc2)oc2cc(O)cc(O)c12` [APIGENIN] came in with a CC50 at 48 h of more than 300 µM. Also, the concentration for half-maximal inhibition (IC50) on Neuraminidase came out at 33.4 µM. The inhibition constant (Ki) on Neuraminidase was determined as 37.1 µM. The selectivity ratio was more than 4.97 in data set [2] and more than 7.03 in data set [5]. Also, the EC50 was determined as 60.4 µM in the data set with Influenza A virus [3] and 42.7 µM in the data set with Influenza A virus [4].
For the molecule `O=c1cc(-c2ccc(O)cc2)oc2cc(O[C@@H]3O[C@H](CO)[C@@H](O)[C@H](O)[C@H]3O)cc(O)c12` [APIGETRIN], on Neuraminidase, the IC50 stood at 46.9 µM and the inhibition constant (Ki) was 53.8 µM. Further, the IC50 at Sialidase came out at 39.3 µM.
`O=c1c(O[C@@H]2O[C@H](CO)[C@@H](O)[C@H](O)[C@H]2O)c(-c2ccc(O)cc2)oc2c(O[C@@H]3O[C@H](CO)[C@@H](O)[C@H](O)[C@H]3O)c(O)cc(O)c12` [LINOCINAMARIN] showed a cytotoxic concentration (CC50) at 48 h in data set [1] of more than 300 µM. Further, the IC50 on Neuraminidase was found to be 44.2 µM; against Sialidase, 39.1 µM. On Neuraminidase, the inhibition constant (Ki) amounted to 63.8 µM. For the same molecule, the selectivity ratio in data set [2] was more than 3.03; in data set [5], more than 3. Also, the EC50 worked out at 99.1 µM in the data set with Influenza A virus [3] and 100 µM in the data set on Influenza A virus [4].
As to `C[C@@H]1O[C@@H](OC[C@H]2O[C@@H](Oc3c(-c4ccc(O)cc4)oc4cc(O)cc(O)c4c3=O)[C@H](O)[C@@H](O)[C@@H]2O)[C@H](O)[C@H](O)[C@H]1O` [NICOTIFLOROSIDE], the 50% cytotoxic concentration (CC50) at 48 h in data set [1] is more than 300 µM. Further, the 50% inhibitory concentration (IC50) is 31.7 µM at Neuraminidase and 55.5 µM on Sialidase. On Neuraminidase, the Ki stood at 32.7 µM. For the same molecule, the selectivity ratio in data set [2] was more than 7.48; in data set [5], more than 4.12. In addition, the values for the concentration for a half-maximal effect (EC50) in the data set with Influenza A virus [3] and in the data set on Influenza A virus [4] were 40.1 µM and 72.9 µM, respectively.
Take `O=c1c(O)c(-c2ccc(O)cc2)oc2c(O)c(O)cc(O)c12` [HERBACETIN]: it took 294 µM to reach half-maximal cytotoxicity in data set [1] (CC50 at 48 h). Also, the half-inhibitory concentration (IC50) was 8.9 µM on Neuraminidase and 1.4 µM on Sialidase. The Ki on Neuraminidase came out at 13.7 µM. In addition, the selectivity ratio in data set [2] is 8.39; in data set [5], 12.8. In addition, the EC50 amounted to 35 µM in the data set with Influenza A virus [3] and 23 µM with Influenza A virus [4].
As for `C[C@@H]1O[C@@H](OC[C@H]2O[C@@H](Oc3c(-c4ccc(O)c(O)c4)oc4cc(O)cc(O)c4c3=O)[C@H](O)[C@@H](O)[C@@H]2O)[C@H](O)[C@H](O)[C@H]1O` [RUTIN], at Neuraminidase, the IC50 turned out to be 34.4 µM and the Ki is 33.8 µM. On Sialidase, this molecule yielded an IC50 of 30.9 µM.
On to `O=c1c(O[C@@H]2O[C@H](CO)[C@@H](O)[C@H](O)[C@H]2O)c(-c2ccc(O)cc2)oc2cc(O)cc(O)c12` [ASTRAGALIN], for which the CC50 at 48 h in data set [1] is more than 300 µM. The IC50 is 38.4 µM on Neuraminidase and 29.4 µM against Sialidase. The Ki at Neuraminidase was 33 µM. Further, the values for the selectivity ratio in data set [2] and in data set [5] were more than 7.5 and more than 4.85, respectively. Also, the figures for the half-maximal effective concentration (EC50) in the data set on Influenza A virus [3] and in the data set on Influenza A virus [4] were 40 µM and 61.9 µM, respectively.
As for `CCOC(=O)C1=C[C@@H](OC(CC)CC)[C@H](NC(C)=O)[C@@H](N)C1` [OSELTAMIVIR], the CC50 at 48 h in data set [1] is more than 300 µM. For the same molecule, in the data set on Influenza A virus [6], the outcome was Active. The concentration giving a half-maximal response (EC50) was 8.3 µM in the data set with Influenza A virus [3] and 6.25 µM in the data set on Influenza A virus [4].
For the molecule `COc1cc([C@H]2Oc3cc(O)c4c(=O)c(O)c(-c5ccc(O)cc5)oc4c3O[C@@H]2CO)ccc1O` [RHODIOLININ], the CC50 at 48 h in data set [1] is more than 300 µM. The IC50 at Neuraminidase was 10.3 µM; at Sialidase, 6.1 µM. Moreover, the Ki at Neuraminidase worked out at 14.1 µM. Further, the selectivity ratio in data set [2] is more than 7.19; in data set [5], more than 10.2. Moreover, the 50% effective concentration (EC50) in the data set with Influenza A virus [3] is 41.7 µM; in the data set with Influenza A virus [4] it was 29.3 µM.
On to `C[C@@H]1O[C@@H](Oc2cc(O)c3c(=O)c(O)c(-c4ccc(O)cc4)oc3c2O)[C@H](O)[C@H](O[C@@H]2O[C@H](CO)[C@@H](O)[C@H](O)[C@H]2O)[C@H]1O` [RHODIOSIN], for which the CC50 at 48 h in data set [1] amounted to 297 µM. In addition, the concentration for half-maximal inhibition (IC50) amounted to 56.5 µM at Neuraminidase and 56.9 µM against Sialidase. Also, the inhibition constant (Ki) on Neuraminidase is 64.1 µM. The selectivity ratio in data set [2] amounted to 3.63; in data set [5], 8.47.
`O=c1c(O)c(-c2ccc(O)c(O)c2)oc2cc(O)cc(O)c12` [QUERCETIN]: it took 254 µM to reach half-maximal cytotoxicity in data set [1] (CC50 at 48 h). In addition, the half-maximal inhibitory concentration (IC50) at Neuraminidase amounted to 2.2 µM; against Sialidase it was 1.7 µM. Further, the Ki at Neuraminidase was 3.8 µM. Moreover, the figures for the selectivity ratio in data set [2] and in data set [5] were 5.89 and 1.9, respectively. For the same molecule, the values for the EC50 in the data set with Influenza A virus [3] and with Influenza A virus [4] were 43.1 µM and 134 µM, respectively.
